Results published in patent publication US20090105305A1, “Therapeutic Agents - 550” (AstraZeneca AB, priority 2006, published 2009).

molecular target: T1, human Fatty Acid Synthase (Homo sapiens, UniProt P49327); assay: Human FAS enzyme assay (decrease in NADPH fluorescence); type: biochemical; conditions: % inhibition at a concentration of 100 micromolar
T1 construct: made in house
How it was run: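 Readout: decrease in NADPH fluorescence (340 nm ex, 460 nm em) after 60 min at RT, background-subtracted against a read taken before substrate. Substrate mix contained 500 μM malonyl-CoA and 150 μM acetyl-CoA. It was added after 15 min enzyme (0.4 μg in-house human FAS)–compound–NADPH preincubation in Tris pH 7.5 buffer; % inhibition was fitted to IC50.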

T1 sequence (P49327 whole entry): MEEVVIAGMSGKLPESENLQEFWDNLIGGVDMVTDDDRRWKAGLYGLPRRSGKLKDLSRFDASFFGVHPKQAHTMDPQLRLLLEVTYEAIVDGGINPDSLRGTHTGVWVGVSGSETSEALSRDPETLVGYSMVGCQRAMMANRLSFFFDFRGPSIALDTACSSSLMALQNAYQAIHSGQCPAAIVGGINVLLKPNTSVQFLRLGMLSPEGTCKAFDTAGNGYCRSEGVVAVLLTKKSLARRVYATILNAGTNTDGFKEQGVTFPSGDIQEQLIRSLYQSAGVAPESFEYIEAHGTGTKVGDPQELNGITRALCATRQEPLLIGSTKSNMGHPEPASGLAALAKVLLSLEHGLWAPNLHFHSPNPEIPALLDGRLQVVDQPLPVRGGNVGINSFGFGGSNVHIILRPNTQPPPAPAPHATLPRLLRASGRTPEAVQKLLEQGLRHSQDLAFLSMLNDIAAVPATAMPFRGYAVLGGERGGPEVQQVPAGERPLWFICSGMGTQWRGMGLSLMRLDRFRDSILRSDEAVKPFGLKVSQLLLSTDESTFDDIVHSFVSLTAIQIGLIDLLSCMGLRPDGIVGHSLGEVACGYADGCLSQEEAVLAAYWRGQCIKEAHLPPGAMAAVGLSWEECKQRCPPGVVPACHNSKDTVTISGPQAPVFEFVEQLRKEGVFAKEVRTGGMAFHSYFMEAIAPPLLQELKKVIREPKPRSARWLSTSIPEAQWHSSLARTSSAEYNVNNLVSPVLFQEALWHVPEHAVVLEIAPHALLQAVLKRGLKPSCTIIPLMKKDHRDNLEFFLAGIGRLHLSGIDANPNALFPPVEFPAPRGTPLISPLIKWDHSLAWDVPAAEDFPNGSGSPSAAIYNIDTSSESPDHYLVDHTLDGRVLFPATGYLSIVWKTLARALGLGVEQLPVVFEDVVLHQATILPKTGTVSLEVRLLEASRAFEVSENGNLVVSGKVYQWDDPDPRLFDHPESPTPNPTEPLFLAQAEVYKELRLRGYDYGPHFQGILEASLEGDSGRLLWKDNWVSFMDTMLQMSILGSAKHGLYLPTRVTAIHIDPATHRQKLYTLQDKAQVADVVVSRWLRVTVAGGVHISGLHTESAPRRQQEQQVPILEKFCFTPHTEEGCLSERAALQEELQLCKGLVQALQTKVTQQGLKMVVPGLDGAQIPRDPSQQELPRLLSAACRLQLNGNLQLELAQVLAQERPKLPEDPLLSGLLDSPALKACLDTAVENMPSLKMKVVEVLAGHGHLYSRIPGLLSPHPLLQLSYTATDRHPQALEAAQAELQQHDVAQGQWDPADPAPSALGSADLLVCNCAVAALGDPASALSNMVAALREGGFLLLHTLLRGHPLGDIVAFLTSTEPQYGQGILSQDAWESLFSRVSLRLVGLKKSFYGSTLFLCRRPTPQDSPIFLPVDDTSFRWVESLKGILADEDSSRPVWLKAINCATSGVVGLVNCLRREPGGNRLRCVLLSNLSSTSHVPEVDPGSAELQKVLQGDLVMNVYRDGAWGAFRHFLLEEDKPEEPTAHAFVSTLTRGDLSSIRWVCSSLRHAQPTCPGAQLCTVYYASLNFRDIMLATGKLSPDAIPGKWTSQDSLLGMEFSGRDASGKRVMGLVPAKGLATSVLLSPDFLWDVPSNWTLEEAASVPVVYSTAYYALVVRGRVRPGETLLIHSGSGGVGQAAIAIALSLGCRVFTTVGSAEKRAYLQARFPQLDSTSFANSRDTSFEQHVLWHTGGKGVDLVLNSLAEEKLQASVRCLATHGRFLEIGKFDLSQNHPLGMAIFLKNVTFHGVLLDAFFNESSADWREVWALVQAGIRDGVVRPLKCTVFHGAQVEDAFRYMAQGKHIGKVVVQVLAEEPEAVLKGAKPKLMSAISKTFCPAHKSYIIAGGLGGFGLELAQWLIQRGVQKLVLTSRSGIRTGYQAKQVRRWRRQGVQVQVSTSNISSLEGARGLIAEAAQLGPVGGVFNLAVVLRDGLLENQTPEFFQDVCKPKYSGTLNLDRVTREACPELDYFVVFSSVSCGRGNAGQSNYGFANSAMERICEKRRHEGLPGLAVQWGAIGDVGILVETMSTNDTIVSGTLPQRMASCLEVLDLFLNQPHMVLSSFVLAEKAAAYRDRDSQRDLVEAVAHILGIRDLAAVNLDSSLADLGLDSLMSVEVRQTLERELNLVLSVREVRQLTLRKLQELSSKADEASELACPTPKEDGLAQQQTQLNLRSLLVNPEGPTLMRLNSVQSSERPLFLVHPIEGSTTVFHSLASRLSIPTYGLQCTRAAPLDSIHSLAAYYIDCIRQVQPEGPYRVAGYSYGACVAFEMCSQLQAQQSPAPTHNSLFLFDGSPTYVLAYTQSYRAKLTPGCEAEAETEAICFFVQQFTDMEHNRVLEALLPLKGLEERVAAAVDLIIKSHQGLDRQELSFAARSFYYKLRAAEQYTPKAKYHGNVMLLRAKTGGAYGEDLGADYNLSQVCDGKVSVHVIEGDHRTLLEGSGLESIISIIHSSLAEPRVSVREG

| SMILES | inhibition at 100 µM [%] |
| --- | --- |
| Cc1ccc(C(=O)N2CCC(c3ccc(C#N)cc3)CC2)cc1NS(=O)(=O)c1ccccc1C(=O)NC(C)C [Example 208, 2-[[5-[4-(4-cyanophenyl)piperidine-1-carbonyl]-2-methylphenyl]sulfamoyl]-N-propan-2-ylbenzamide] | 75 |
| Cc1ccc(C(=O)N2CCC(c3ccc(C#N)cc3)CC2)cc1NS(=O)(=O)C(F)(F)F [Example 209, N-[5-[4-(4-cyanophenyl)piperidine-1-carbonyl]-2-methylphenyl]-1,1,1-trifluoromethane-sulfonamide] | 76 |
| CS(=O)(=O)Nc1cc(C(=O)N2CCC(c3ccc(C#N)cc3)CC2)ccc1S(C)(=O)=O [Example 210, N-[5-[4-(4-cyanophenyl)piperidine-1-carbonyl]-2-methylsulfonylphenyl]methanesulfonamide] | 91 |
| C[S+]([O-])c1ccc(C(=O)N2CCC(c3ccc(C#N)cc3)CC2)cc1NS(=O)(=O)Cc1ccccc1 (centres unmarked) [Example 211, N-[5-[4-(4-cyanophenyl)piperidine-1-carbonyl]-2-methylsulfinylphenyl]-1-phenylmethanesulfonamide] | 92 |
| Cc1ccc(C(=O)N2CCC(c3ccc(C#N)cc3)CC2)cc1NS(=O)(=O)CC#N [Example 212, 1-cyano-N-[5-[4-(4-cyanophenyl)piperidine-1-carbonyl]-2-methylphenyl]methanesulfonamide] | 69 |
| Cc1ccc(C(=O)N2CCC(c3ccc(F)cc3)CC2)cc1NS(C)(=O)=O [Example 213, N-[5-[4-(4-fluorophenyl)piperidine-1-carbonyl]-2-methylphenyl]methanesulfonamide] | 71 |
| Cc1ccc(C(=O)N2CCC(c3ccc(C(N)=NO)cc3)CC2)cc1NS(C)(=O)=O [Example 214, N′-hydroxy-4-[1-(3-methanesulfonamido-4-methylbenzoyl)piperidin-4-yl]benzene-carboximidamide] | 85 |
| Cc1ccc(C(=O)N2CCC(O)(c3ccc(C(F)(F)F)cc3)CC2)cc1NS(C)(=O)=O [Example 215, N-[5-[4-hydroxy-4-[4-(trifluoromethyl)phenyl]piperidine-1-carbonyl]-2-methylphenyl]methanesulfonamide] | 56 |
| Cc1ccc(C(=O)N2CCC(c3ccc(Cl)cc3)CC2)cc1NS(=O)(=O)C1CCS(=O)(=O)C1 (centres unmarked) [Example 216, N-[5-[4-(4-chlorophenyl)piperidine-1-carbonyl]-2-methylphenyl]-1,1-dioxothiolane-3-sulfonamide] | 89 |
| Cc1cc(C2CCN(C(=O)c3ccc(C)c(NS(C)(=O)=O)c3)CC2)ccc1C#N [Example 217, N-[5-[4-(4-cyano-3-methylphenyl)piperidine-1-carbonyl]-2-methylphenyl]methane-sulfonamide] | 60 |
| Cc1ccc(C(=O)N2CCC(c3ccc(C#N)c(Cl)c3)CC2)cc1NS(C)(=O)=O [Example 218, N-[5-[4-(3-chloro-4-cyanophenyl)piperidine-1-carbonyl]-2-methylphenyl]methane-sulfonamide] | 67 |
| COCCOc1ccc(C2CCN(C(=O)c3ccc(C)c(NS(C)(=O)=O)c3)CC2)cc1 [Example 219, N-[5-[4-[4-(2-methoxyethoxy)phenyl]piperidine-1-carbonyl]-2-methylphenyl]methane-sulfonamide] | 87 |
| Cc1ccc(C(=O)N2CCC(c3ccc(S(=O)(=O)NCCO)cc3)CC2)cc1NS(C)(=O)=O [Example 220, N-(2-hydroxyethyl)-4-[1-(3-methanesulfonamido-4-methylbenzoyl)piperidin-4-yl]benzenesulfonamide] | 85 |
| Cc1ccc(C(=O)N2CCC(c3ccc(NS(C)(=O)=O)cc3)CC2)cc1NS(C)(=O)=O [Example 221, N-[4-[1-(3-methanesulfonamido-4-methylbenzoyl)piperidin-4-yl]phenyl]methane-sulfonamide] | 74 |
| Cc1ccc(C(=O)N2CCC(c3ccc(C(=O)NCCN(C)C)cc3)CC2)cc1NS(C)(=O)=O [Example 222, N-(2-dimethylaminoethyl)-4-[1-(3-methanesulfonamido-4-methylbenzoyl)piperidin-4-yl]benzamide] | 64 |
| Cc1ccc(C(=O)N2CCC(c3ccc(CS(C)(=O)=O)cc3)CC2)cc1NS(C)(=O)=O [Example 223, N-[2-methyl-5-[4-[4-(methylsulfonylmethyl)phenyl]piperidine-1-carbonyl]phenyl]-methanesulfonamide] | 74 |
| Cc1ccc(C(=O)N2CCC(c3ccc(C#N)cc3)CC2)cc1NS(=O)(=O)C(C)(C)Cl [Example 224, 2-chloro-N-[5-[4-(4-cyanophenyl)piperidine-1-carbonyl]-2-methylphenyl]propane-2-sulfonamide] | 108 |

Results, then the compound that gave them:

| inhibition at 100 µM [%] | SMILES |
| --- | --- |
| 89.1 | CCC(=O)NCc1ccc(C2CCN(C(=O)c3ccc(C)c(NS(C)(=O)=O)c3)CC2)cc1 [Example 225, N—[[4-[1-(3-methanesulfonamido-4-methylbenzoyl)piperidin-4-yl]phenyl]methyl]propanamide] |
| 81 | Cc1ccc(C(=O)N2CCC(c3ccc(CNC(=O)C(C)C)cc3)CC2)cc1NS(C)(=O)=O [Example 226, N-[[4-[1-(3-methanesulfonamido-4-methylbenzoyl)piperidin-4-yl]phenyl]methyl]-2-methylpropanamide] |
| 87.4 | CCS(=O)(=O)NCc1ccc(C2CCN(C(=O)c3ccc(C)c(NS(C)(=O)=O)c3)CC2)cc1 [Example 227, N-[[4-[1-(3-methanesulfonamido-4-methylbenzoyl)piperidin-4-yl]phenyl]methyl]ethanesulfonamide] |
| 85.5 | CCOC(=O)NCc1ccc(C2CCN(C(=O)c3ccc(C)c(NS(C)(=O)=O)c3)CC2)cc1 [Example 228, Ethyl N-[[4-[1-(3-methanesulfonamido-4-methylbenzoyl)piperidin-4-yl]phenyl]methyl]carbamate] |
| 80.2 | Cc1ccc(Oc2ccc(C3CCN(C(=O)c4ccc(C)c(NS(C)(=O)=O)c4)CC3)cc2)nn1 [Example 229, N-[2-methyl-5-[4-[4-(6-methylpyridazin-3-yl)oxyphenyl]piperidine-1-carbonyl]phenyl]methanesulfonamide] |
| 73.2 | Cc1ccc(C(=O)N2CCC(c3ccc(N(C)S(C)(=O)=O)cc3)CC2)cc1NS(C)(=O)=O [Example 230, N-[2-methyl-5-[4-[4-(methyl-methylsulfonylamino)phenyl]piperidine-1-carbonyl]phenyl]methanesulfonamide] |
| 86.1 | Cc1ccc(C(=O)N2CCC(c3ccc(C(=O)N4CCOCC4)cc3)CC2)cc1NS(C)(=O)=O [Example 231, N-[2-methyl-5-[4-[4-(morpholine-4-carbonyl)phenyl]piperidine-1-carbonyl]phenyl]methanesulfonamide] |
| 88.9 | Cc1ccc(C(=O)N2CCC(c3ccc(SC(F)(F)F)cc3)CC2)cc1NS(C)(=O)=O [Example 232, N-[2-methyl-5-[4-[4-(trifluoromethylsulfanyl)phenyl]piperidine-1-carbonyl]phenyl]methanesulfonamide] |
| 81.8 | CNC(=O)NCc1ccc(C2CCN(C(=O)c3ccc(C)c(NS(C)(=O)=O)c3)CC2)cc1 [Example 233, 1-[[4-[1-(3-methanesulfonamido-4-methylbenzoyl)piperidin-4-yl]phenyl]methyl]-3-methylurea] |
